Inhibition data for 13 molecules are collected here from patent US20260297092A1, “PYRAZOLOPYRIMIDINE DERIVATIVES AS INHIBITORS OF NLRP3” (Takeda Pharmaceutical Company Limited, priority 2023, published 2026).

The test deals with NLRP3 inflammasome (IL-1β production in THP-1 cells). The experiment in a line: IL-1β TR-FRET Assay (percentage of inhibition at 300 nM, 6 μM or 10 μM). The conditions noted are these: Homo sapiens, LPS priming, ATP activation; for inhibition at 6 µM: THP-1, 6 μM, read-out: IL-1β inhibitory rate at 6 μM (%); for inhibition at 0.3 µM: THP-1, 300 nM, read-out: IL-1β inhibitory rate at 300 nM (%). It is filed as cell-based, human. As to the method: The biological activity of the compound of Formula 1 with respect to NLRP3 was determined using the following in vitro method.
IL-1β TR-FRET Assay (reported as percentage of inhibition at 300 nM, 6 μM or 10 μM)
Monocytic THP-1 cells (ATCC: TIB-202) were maintained in accordance with the provider's instructions in RPMI media (Life Technologies, Cat #A10491-01); RPMI was supplemented with 10% heat inactivated fetal bovine serum (Corning, Cat #35-010-CV). The cells were differentiated into macrophages by the addition of 25 ng/mL IFN-γ (PeproTech, Cat #AF-300-02-100UG) for 24 hours at 37° C./5% CO2. Media was exchanged with fresh media with no FBS, and the cells were treated with 50 ng/mL LPS (priming step) (LPS-EK: Invivogen, Cat #tlrl-peklps). The cells were plated at 20,000 cells per well in 384-well flat-bottom cell culture plates (FALCON, Cat #353962) and were incubated for 24 hours at 37° C./5% CO2. Compounds were serially diluted (half log or 5-fold dilutions) with DMSO and were finally diluted with Media with no FBS. The compounds were added to the cells in 384-well plates (added in 1:3) and then the plates were incubated for 30 minutes at 37° C./5% CO2. The NLRP3 inflammasome was activated with the addition of 20 mM ATP (Sigma Cat #A3377-25G) and the cells were incubated for 2 hours at 37° C./5% CO2. At the end of the incubation period, 30 μL supernatant was transferred to another 384-well plate and mixed on a plate shaker for 1 minute. The supernatant was mixed with HTRF Antibody (Human IL1 beta kit, Cisbio, 62HIL1BPEH) in assay plates (Greiner Bio-One, Cat #784075) and the assay plates were incubated in shading box at room temperature for 16-24 hours. HTRF signal was measured by EnVision (Perkinelmer) in accordance with the manufacturer's instructions.
The percentage of inhibition at 300 nM, 6 μM or 10 μM in the IL-1βTR-FRET assay was calculated by the following formula: Percentage of inhibition=[1−(HTRF signaltest−HTRF signalLow)/(HTRF signalHigh−HTRF signalLow)]*100, where HTRF signaltest is the HTRF signal in the well to which test compound is added, HTRF signalLow is the HTRF signal in the well to which 3 μM MCC-950 is added, and the HTRF signalHigh is the HTRF signal in the well to which DMSO is added.
In general terms: In TR-FRET formats the signal depends on donor and acceptor labels being close together.

In the case of `CCOC(Cc1nc2nn(-c3c(C)cc(C4CC4)cc3C)cc2c(=O)[nH]1)OCC` [Example 234, 2-(4-cyclopropyl-2,6-dimethylphenyl)-6-(2,2-diethoxyethyl)-2,5-dihydro-4H-pyrazolo[3,4-d]pyrimidin-4-one], the inhibition at 6 µM worked out at 90%. Turning to `Cc1cc(C2CC2)cc(C)c1-n1cc2c(=O)[nH]c(CCOCc3ccccc3)nc2n1` [Example 268, 6-[2-(benzyloxy)ethyl]-2-(4-cyclopropyl-2,6-dimethylphenyl)-2,5-dihydro-4H-pyrazolo[3,4-d]pyrimidin-4-one], the inhibition at 6 µM came to 98%. Consider `COc1nc2nn(-c3c(OC)cc(C4CC4)cc3C(F)F)cc2c(=O)[nH]1` [Example 169, 2-[4-cyclopropyl-2-(difluoromethyl)-6-methoxyphenyl]-6-methoxy-2,5-dihydro-4H-pyrazolo[3,4-d]pyrimidin-4-one], for which the inhibition at 0.3 µM was 103%. Take `Cc1cc(C2CC2)cc(C)c1-n1cc2c(=O)[nH]c(COCC(F)F)nc2n1` [Example 212, 2-(4-cyclopropyl-2,6-dimethylphenyl)-6-[(2,2-difluoroethoxy)methyl]-2,5-dihydro-4H-pyrazolo[3,4-d]pyrimidin-4-one]: the inhibition at 0.3 µM worked out at 103%. For `O=c1[nH]c(COC(F)F)nc2nn(-c3ccc(C4CC4)cc3C(F)F)cc12` [Example 271, 2-[4-cyclopropyl-2-(difluoromethyl)phenyl]-6-[(difluoromethoxy)methyl]-2,5-dihydro-4H-pyrazolo[3,4-d]pyrimidin-4-one], the inhibition at 6 µM stood at 102%.

`Cc1cc(C2CC2)cc(C)c1-n1cc2c(=O)[nH]c(-c3cc4n(n3)CCO4)nc2n1` [Example 270, 2-(4-cyclopropyl-2,6-dimethylphenyl)-6-(2,3-dihydropyrazolo[5,1-b][1,3]oxazol-6-yl)-2,5-dihydro-4H-pyrazolo[3,4-d]pyrimidin-4-one]: the inhibition at 6 µM amounted to 98%. Same read-out and setting: to `CCOc1c(-n2cc3c(=O)[nH]c(CC)nc3n2)ccc(C2CC2)c1C(F)F` [Example 282, 2-[4-cyclopropyl-3-(difluoromethyl)-2-ethoxyphenyl]-6-ethyl-2,5-dihydro-4H-pyrazolo[3,4-d]pyrimidin-4-one] belongs 55%.

`Cc1cc(C2CC2)cc(C)c1-n1cc2c(=O)[nH]c(C3COCCO3)nc2n1` (racemic) [Example 232, 2-(4-cyclopropyl-2,6-dimethylphenyl)-6-(1,4-dioxan-2-yl)-2,5-dihydro-4H-pyrazolo[3,4-d]pyrimidin-4-one]: the inhibition at 0.3 µM was 97%. As to `CCOc1nc2nn(-c3c(C)cc(C)cc3F)cc2c(=O)[nH]1` [Example 78, 6-ethoxy-2-(2-fluoro-4,6-dimethylphenyl)-2,5-dihydro-4H-pyrazolo[3,4-d]pyrimidin-4-one], the inhibition at 0.3 µM was found to be 98%.

Consider `CCOc1nc2nn(-c3c(C#N)cc(C4CC4)cc3C(F)F)cc2c(=O)[nH]1` [Example 254, 5-cyclopropyl-3-(difluoromethyl)-2-(6-ethoxy-4-oxo-4,5-dihydro-2H-pyrazolo[3,4-d]pyrimidin-2-yl)benzonitrile], for which the inhibition at 6 µM was 100%. The same measure, in the same setting: to `Cc1cc(C2CC2)cc(C)c1-n1cc2c(=O)[nH]c(C(C)(F)F)nc2n1` [Example 259, 2-(4-cyclopropyl-2,6-dimethylphenyl)-6-(1,1-difluoroethyl)-2,5-dihydro-4H-pyrazolo[3,4-d]pyrimidin-4-one] belongs 104%.

Turning to `Cc1cc(Br)cc(C)c1-n1cc2c(=O)[nH]c([C@@H](C)C(=O)O)nc2n1` [Example 170, 2-[2-(4-bromo-2,6-dimethylphenyl)-4-oxo-4,5-dihydro-2H-pyrazolo [3,4-d]pyrimidin-6-yl]propanoic acid], the inhibition at 10 µM (THP-1, 10 μM, read-out: IL-1β inhibitory rate at 10 μM (%)) was 136%. In the case of `Cc1cc(C2CC2)cc(C)c1-n1cc2c(=O)[nH]c([C@@H]3CCOC3)nc2n1` [Example 201, 2-(4-cyclopropyl-2,6-dimethylphenyl)-6-(oxolan-3-yl)-2,5-dihydro-4H-pyrazolo [3,4-d]pyrimidin-4-one], the inhibition at 0.3 µM was 99%.
